Tested on: not listed separately
Test: Antiproliferative activity against human Hs 578T cells assessed as cell growth at 10^-6 M after 48 hrs by sulforhodamine B assay
Assay type: functional
Details: read-out: Activity

Row | Compound | growth at 1 µM [%]
1 | CNC(=O)c1cc(Oc2ccc3nc(NC(=O)Nc4ccc(Cl)c(Cl)c4)sc3c2)ccn1 | 108

Tested on: NCI-H522
Test: Antiproliferative activity against human NCI-H522 cells assessed as cell growth at 10^-8 M after 48 hrs by sulforhodamine B assay
Assay type: functional
Details: NCI-H522, 48 h, read-out: Activity

Row | Compound | growth at 0.01 µM [%]
2 | CNC(=O)c1cc(Oc2ccc3nc(NC(=O)Nc4ccc(Cl)c(Cl)c4)sc3c2)ccn1 | 98

Tested on: T47D
Test: Antiproliferative activity against human T47D cells assessed as cell growth at 10^-7 M after 48 hrs by sulforhodamine B assay
Assay type: functional
Details: read-out: Activity

Row | Compound | growth at 0.1 µM [%]
3 | CNC(=O)c1cc(Oc2ccc3nc(NC(=O)Nc4ccc(Cl)c(Cl)c4)sc3c2)ccn1 | 106

Tested on: not listed separately
Test: Antiproliferative activity against human TK10 cells assessed as cell growth at 10^-6 M after 48 hrs by sulforhodamine B assay
Assay type: functional
Details: TK-10, 48 h, read-out: Activity

Row | Compound | growth at 1 µM [%]
4 | CNC(=O)c1cc(Oc2ccc3nc(NC(=O)Nc4ccc(Cl)c(Cl)c4)sc3c2)ccn1 | 113

Tested on: not listed separately
Test: Antiproliferative activity against human SF539 cells assessed as growth inhibition after 48 hrs by sulforhodamine B assay
Assay type: functional
Details: SF-539, 48 h

Row | Compound | GI50 [µM] | LC50 [µM] | TGI [µM]
5 | CNC(=O)c1cc(Oc2ccc3nc(NC(=O)Nc4ccc(Cl)c(Cl)c4)sc3c2)ccn1 | 2.17 | 11.1 | 4.69

Tested on: SK-MEL-2
Test: Antiproliferative activity against human SK-MEL-2 cells assessed as cell growth at 10^-6 M after 48 hrs by sulforhodamine B assay
Assay type: functional
Details: SK-MEL-2, 48 h, read-out: Activity

Row | Compound | growth at 1 µM [%]
6 | CNC(=O)c1cc(Oc2ccc3nc(NC(=O)Nc4ccc(Cl)c(Cl)c4)sc3c2)ccn1 | 105

Tested on: Malme-3M
Test: Antiproliferative activity against human MALME-3M cells assessed as cell growth at 10^-6 M after 48 hrs by sulforhodamine B assay
Assay type: functional
Details: read-out: Activity

Row | Compound | growth at 1 µM [%]
7 | CNC(=O)c1cc(Oc2ccc3nc(NC(=O)Nc4ccc(Cl)c(Cl)c4)sc3c2)ccn1 | 76

Tested on: NCI-H322M
Test: Antiproliferative activity against human NCI-H322M cells assessed as cell growth at 10^-7 M after 48 hrs by sulforhodamine B assay
Assay type: functional
Details: read-out: Activity

Row | Compound | growth at 0.1 µM [%]
8 | CNC(=O)c1cc(Oc2ccc3nc(NC(=O)Nc4ccc(Cl)c(Cl)c4)sc3c2)ccn1 | 87

Tested on: not listed separately
Test: Antiproliferative activity against human OVCAR8 cells assessed as cell growth at 10^-6 M after 48 hrs by sulforhodamine B assay
Assay type: functional
Details: OVCAR-8, 48 h, read-out: Activity

Row | Compound | growth at 1 µM [%]
9 | CNC(=O)c1cc(Oc2ccc3nc(NC(=O)Nc4ccc(Cl)c(Cl)c4)sc3c2)ccn1 | 103

Tested on: SK-MEL-5
Test: Antiproliferative activity against human SK-MEL-5 cells assessed as cell growth at 10^-6 M after 48 hrs by sulforhodamine B assay
Assay type: functional
Details: SK-MEL-5, 48 h, read-out: Activity

Row | Compound | growth at 1 µM [%]
10 | CNC(=O)c1cc(Oc2ccc3nc(NC(=O)Nc4ccc(Cl)c(Cl)c4)sc3c2)ccn1 | 94

Tested on: SK-MEL-28
Test: Antiproliferative activity against human SK-MEL-28 cells assessed as cell growth at 10^-4 M after 48 hrs by sulforhodamine B assay
Assay type: functional
Details: SK-MEL-28, 48 h, read-out: Activity

Row | Compound | growth at 100 µM [%]
11 | CNC(=O)c1cc(Oc2ccc3nc(NC(=O)Nc4ccc(Cl)c(Cl)c4)sc3c2)ccn1 | -51

Tested on: not listed separately
Test: Antiproliferative activity against human BT549 cells assessed as cell growth at 10^-8 M after 48 hrs by sulforhodamine B assay
Assay type: functional
Details: BT-549, 48 h, read-out: Activity

Row | Compound | growth at 0.01 µM [%]
12 | CNC(=O)c1cc(Oc2ccc3nc(NC(=O)Nc4ccc(Cl)c(Cl)c4)sc3c2)ccn1 | 94

Tested on: NCI-H23
Test: Antiproliferative activity against human NCI-H23 cells assessed as cell growth at 10^-4 M after 48 hrs by sulforhodamine B assay
Assay type: functional
Details: NCI-H23, 48 h, read-out: Activity

Row | Compound | growth at 100 µM [%]
13 | CNC(=O)c1cc(Oc2ccc3nc(NC(=O)Nc4ccc(Cl)c(Cl)c4)sc3c2)ccn1 | 6

Tested on: not listed separately
Test: Antiproliferative activity against human COLO205 cells assessed as cell growth at 10^-8 M after 48 hrs by sulforhodamine B assay
Assay type: functional
Details: COLO 205, 48 h, read-out: Activity

Row | Compound | growth at 0.01 µM [%]
14 | CNC(=O)c1cc(Oc2ccc3nc(NC(=O)Nc4ccc(Cl)c(Cl)c4)sc3c2)ccn1 | 102

Tested on: A498
Test: Antiproliferative activity against human A498 cells assessed as cell growth at 10^-4 M after 48 hrs by sulforhodamine B assay
Assay type: functional
Details: A498, 48 h, read-out: Activity

Row | Compound | growth at 100 µM [%]
15 | CNC(=O)c1cc(Oc2ccc3nc(NC(=O)Nc4ccc(Cl)c(Cl)c4)sc3c2)ccn1 | -42

Tested on: not listed separately
Test: Antiproliferative activity against human SNB19 cells assessed as cell growth at 10^-6 M after 48 hrs by sulforhodamine B assay
Assay type: functional
Details: SNB-19, 48 h, read-out: Activity

Row | Compound | growth at 1 µM [%]
16 | CNC(=O)c1cc(Oc2ccc3nc(NC(=O)Nc4ccc(Cl)c(Cl)c4)sc3c2)ccn1 | 100

Tested on: MCF7
Test: Antiproliferative activity against human MCF7 cells assessed as cell growth at 10^-4 M after 48 hrs by sulforhodamine B assay
Assay type: functional
Details: MCF7, 48 h, read-out: Activity

Row | Compound | growth at 100 µM [%]
17 | CNC(=O)c1cc(Oc2ccc3nc(NC(=O)Nc4ccc(Cl)c(Cl)c4)sc3c2)ccn1 | 7

Tested on: SR
Test: Antiproliferative activity against human SR cells assessed as cell growth at 10^-4 M after 48 hrs by sulforhodamine B assay
Assay type: functional
Details: read-out: Activity

Row | Compound | growth at 100 µM [%]
18 | CNC(=O)c1cc(Oc2ccc3nc(NC(=O)Nc4ccc(Cl)c(Cl)c4)sc3c2)ccn1 | 50

Tested on: not listed separately
Test: Antiproliferative activity against human HOP92 cells assessed as cell growth at 10^-8 M after 48 hrs by sulforhodamine B assay
Assay type: functional
Details: HOP-92, 48 h, read-out: Activity

Row | Compound | growth at 0.01 µM [%]
19 | CNC(=O)c1cc(Oc2ccc3nc(NC(=O)Nc4ccc(Cl)c(Cl)c4)sc3c2)ccn1 | 100

Tested on: SK-MEL-5
Test: Antiproliferative activity against human SK-MEL-5 cells assessed as cell growth at 10^-4 M after 48 hrs by sulforhodamine B assay
Assay type: functional
Details: SK-MEL-5, 48 h, read-out: Activity

Row | Compound | growth at 100 µM [%]
20 | CNC(=O)c1cc(Oc2ccc3nc(NC(=O)Nc4ccc(Cl)c(Cl)c4)sc3c2)ccn1 | -23

Tested on: not listed separately
Test: Antiproliferative activity against human RPMI8226 cells assessed as growth inhibition after 48 hrs by sulforhodamine B assay
Assay type: functional
Details: RPMI-8226, 48 h

Row | Compound | GI50 [µM] | LC50 [µM] | TGI [µM]
21 | CNC(=O)c1cc(Oc2ccc3nc(NC(=O)Nc4ccc(Cl)c(Cl)c4)sc3c2)ccn1 | 3.66 | > 100 | > 100

Tested on: NCI-H522
Test: Antiproliferative activity against human NCI-H522 cells assessed as cell growth at 10^-4 M after 48 hrs by sulforhodamine B assay
Assay type: functional
Details: NCI-H522, 48 h, read-out: Activity

Row | Compound | growth at 100 µM [%]
22 | CNC(=O)c1cc(Oc2ccc3nc(NC(=O)Nc4ccc(Cl)c(Cl)c4)sc3c2)ccn1 | 23

Tested on: not listed separately
Test: Antiproliferative activity against human DU145 cells assessed as cell growth at 10^-8 M after 48 hrs by sulforhodamine B assay
Assay type: functional
Details: DU-145, 48 h, read-out: Activity

Row | Compound | growth at 0.01 µM [%]
23 | CNC(=O)c1cc(Oc2ccc3nc(NC(=O)Nc4ccc(Cl)c(Cl)c4)sc3c2)ccn1 | 102

Tested on: not listed separately
Test: Antiproliferative activity against human PC3 cells assessed as growth inhibition after 48 hrs by sulforhodamine B assay
Assay type: functional
Details: PC-3, 48 h

Row | Compound | GI50 [µM] | TGI [µM]
24 | CNC(=O)c1cc(Oc2ccc3nc(NC(=O)Nc4ccc(Cl)c(Cl)c4)sc3c2)ccn1 | 1.95 | 4.33

Tested on: not listed separately
Test: Antiproliferative activity against human HL-60(TB) cells assessed as cell growth at 10^-8 M after 48 hrs by sulforhodamine B assay
Assay type: functional
Details: HL-60, 48 h, read-out: Activity

Row | Compound | growth at 0.01 µM [%]
25 | CNC(=O)c1cc(Oc2ccc3nc(NC(=O)Nc4ccc(Cl)c(Cl)c4)sc3c2)ccn1 | 102

Tested on: not listed separately
Test: Antiproliferative activity against human HOP92 cells assessed as growth inhibition after 48 hrs by sulforhodamine B assay
Assay type: functional
Details: HOP-92, 48 h

Row | Compound | GI50 [µM] | LC50 [µM] | TGI [µM]
26 | CNC(=O)c1cc(Oc2ccc3nc(NC(=O)Nc4ccc(Cl)c(Cl)c4)sc3c2)ccn1 | 2.66 | 18.8 | 5.39

Tested on: CCRF-CEM
Test: Antiproliferative activity against human CCRF-CEM cells assessed as cell growth at 10^-4 M after 48 hrs by sulforhodamine B assay
Assay type: functional
Details: read-out: Activity

Row | Compound | growth at 100 µM [%]
27 | CNC(=O)c1cc(Oc2ccc3nc(NC(=O)Nc4ccc(Cl)c(Cl)c4)sc3c2)ccn1 | 79

Tested on: not listed separately
Test: Antiproliferative activity against human NCI-ADR-RES cells assessed as growth inhibition after 48 hrs by sulforhodamine B assay
Assay type: functional
Details: not given

Row | Compound | GI50 [µM] | LC50 (concentration killing 50% of cells) [µM] | TGI [µM]
28 | CNC(=O)c1cc(Oc2ccc3nc(NC(=O)Nc4ccc(Cl)c(Cl)c4)sc3c2)ccn1 | 2.3 | > 100 | 5.09

Tested on: Malme-3M
Test: Antiproliferative activity against human MALME-3M cells assessed as cell growth at 10^-4 M after 48 hrs by sulforhodamine B assay
Assay type: functional
Details: read-out: Activity

Row | Compound | growth at 100 µM [%]
29 | CNC(=O)c1cc(Oc2ccc3nc(NC(=O)Nc4ccc(Cl)c(Cl)c4)sc3c2)ccn1 | -75

Tested on: not listed separately
Test: Antiproliferative activity against human LOXIMVI cells assessed as cell growth at 10^-7 M after 48 hrs by sulforhodamine B assay
Assay type: functional
Details: LOX IMVI, read-out: Activity

Row | Compound | growth at 0.1 µM [%]
30 | CNC(=O)c1cc(Oc2ccc3nc(NC(=O)Nc4ccc(Cl)c(Cl)c4)sc3c2)ccn1 | 93

Tested on: K562
Test: Antiproliferative activity against human K562 cells assessed as cell growth at 10^-4 M after 48 hrs by sulforhodamine B assay
Assay type: functional
Details: K562, 48 h, read-out: Activity

Row | Compound | growth at 100 µM [%]
31 | CNC(=O)c1cc(Oc2ccc3nc(NC(=O)Nc4ccc(Cl)c(Cl)c4)sc3c2)ccn1 | 53

Tested on: KM12
Test: Antiproliferative activity against human KM12 cells assessed as cell growth at 10^-8 M after 48 hrs by sulforhodamine B assay
Assay type: functional
Details: KM12, 48 h, read-out: Activity

Row | Compound | growth at 0.01 µM [%]
32 | CNC(=O)c1cc(Oc2ccc3nc(NC(=O)Nc4ccc(Cl)c(Cl)c4)sc3c2)ccn1 | 98

Tested on: not listed separately
Test: Antiproliferative activity against human TK10 cells assessed as cell growth at 10^-4 M after 48 hrs by sulforhodamine B assay
Assay type: functional
Details: TK-10, 48 h, read-out: Activity

Row | Compound | growth at 100 µM [%]
33 | CNC(=O)c1cc(Oc2ccc3nc(NC(=O)Nc4ccc(Cl)c(Cl)c4)sc3c2)ccn1 | -14

Tested on: A549
Test: Antiproliferative activity against human A549/ATCC cells assessed as growth inhibition after 48 hrs by sulforhodamine B assay
Assay type: functional
Details: A549, 48 h

Row | Compound | GI50 [µM] | TGI [µM]
34 | CNC(=O)c1cc(Oc2ccc3nc(NC(=O)Nc4ccc(Cl)c(Cl)c4)sc3c2)ccn1 | 1.89 | 3.99

Tested on: ACHN
Test: Antiproliferative activity against human ACHN cells assessed as cell growth at 10^-8 M after 48 hrs by sulforhodamine B assay
Assay type: functional
Details: read-out: Activity

Row | Compound | growth at 0.01 µM [%]
35 | CNC(=O)c1cc(Oc2ccc3nc(NC(=O)Nc4ccc(Cl)c(Cl)c4)sc3c2)ccn1 | 92

Tested on: A549
Test: Antiproliferative activity against human A549/ATCC cells assessed as cell growth at […] after 48 hrs by sulforhodamine B assay
Assay type: functional
Details: A549, 48 h, read-out: Activity

Row | Compound | growth at 0.1 µM [%]
36 | CNC(=O)c1cc(Oc2ccc3nc(NC(=O)Nc4ccc(Cl)c(Cl)c4)sc3c2)ccn1 | 96

Tested on: SR
Test: Antiproliferative activity against human SR cells assessed as cell growth at 10^-6 M after 48 hrs by sulforhodamine B assay
Assay type: functional
Details: read-out: Activity

Row | Compound | growth at 1 µM [%]
37 | CNC(=O)c1cc(Oc2ccc3nc(NC(=O)Nc4ccc(Cl)c(Cl)c4)sc3c2)ccn1 | 97

— ChEMBL document CHEMBL3797052 (Eur J Med Chem, 2016)
